Measurements published in ChEMBL document CHEMBL1921768, “Identification of novel CYP2A6 inhibitors by virtual screening” (Bioorg Med Chem, 2011).

Tests used:
Assay type in all cases: ADME, Microsome
Cytochrome P450 2A6 [1] = molecular target: T1, Cytochrome P450 2A6 (Homo sapiens, UniProt P11509); assay: Inhibition of CYP2A6 in human liver microsomes assessed as inhibition of coumarin 7-hydroxylation after 10 mins by plate reader
T1 sequence (P11509 whole entry): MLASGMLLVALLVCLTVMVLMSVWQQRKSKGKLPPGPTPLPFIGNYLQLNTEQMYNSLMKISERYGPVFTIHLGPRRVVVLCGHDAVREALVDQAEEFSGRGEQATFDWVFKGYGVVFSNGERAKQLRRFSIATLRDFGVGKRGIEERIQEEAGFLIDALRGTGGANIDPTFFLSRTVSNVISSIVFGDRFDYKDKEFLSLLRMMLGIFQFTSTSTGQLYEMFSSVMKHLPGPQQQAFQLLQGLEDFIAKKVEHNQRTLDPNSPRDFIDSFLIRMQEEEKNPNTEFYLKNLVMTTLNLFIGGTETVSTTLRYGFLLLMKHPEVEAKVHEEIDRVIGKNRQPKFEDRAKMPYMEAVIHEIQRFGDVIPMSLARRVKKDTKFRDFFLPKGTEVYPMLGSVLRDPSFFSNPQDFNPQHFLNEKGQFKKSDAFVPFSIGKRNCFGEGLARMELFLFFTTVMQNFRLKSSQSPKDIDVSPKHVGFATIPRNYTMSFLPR

Cytochrome P450 2A6 [2] = molecular target: T1, Cytochrome P450 2A6; assay: Inhibition of CYP2A6 in human liver microsomes assessed as inhibition of coumarin 7-hydroxylation after 30 mins preincubation by plate reader
CYP2A6 = molecular target: T2, CYP2A6 (Homo sapiens, UniProt P11509); assay: (§1) Irreversible inhibition of CYP2A6 in human liver microsomes assessed as coumarin 7-hydroxylation activity by double reciprocal plot analysis in presence of NADPH; conditions: human, liver microsomes, probe coumarin (7-hydroxylation)
T2 sequence (P11509 whole entry): T1 sequence (P11509 whole entry)

Cytochrome P450 2A6 [3] = molecular target: T1, Cytochrome P450 2A6; assay: as §1
Cytochrome P450 2A6 [4] = molecular target: T1, Cytochrome P450 2A6; assay: Irreversible inhibition of CYP2A6 in human liver microsomes assessed as coumarin 7-hydroxylation activity in presence of NADPH; conditions: TDE = time-dependent effect
Cytochrome P450 2A6 [5] = molecular target: T1, Cytochrome P450 2A6; assay: Irreversible inhibition of CYP2A6 in human liver microsomes assessed as coumarin 7-hydroxylation activity after 1 to 5 mins in presence of NADPH

SMILES	IC50 (Cytochrome P450 2A6 [1]) [nM]	also measured
N#Cc1ccc(C=O)cc1	> 100000	
N#Cc1c(Cl)cccc1OCC(F)(F)F	> 100000	
O=C(O)c1cc2ccccc2s1	> 100000	
N#CCSc1nnc(N)s1	> 100000	
Brc1ccc2[nH]ccc2c1	6400	
NCc1cc2ccccc2s1	100	
NCc1csc2ccccc12	1500	IC50 (Cytochrome P450 2A6 [2]): 200 nM

Second part, led by results:

IC50 (Cytochrome P450 2A6 [1]) [nM]	SMILES	also measured
1700	NCc1ccc2sccc2c1	IC50 (Cytochrome P450 2A6 [2]): 600 nM
> 100000	Brc1cccc2[nH]ccc12	
> 100000	O=Cc1ccc(-c2cccs2)cc1	
1600	O=Cc1csc2ccccc12	kinact (CYP2A6): 0.006 s⁻¹; Ki (Cytochrome P450 2A6 [3]): 29000 nM; inhibition (INH) (Cytochrome P450 2A6 [4]): tde; inhibition (INH) (Cytochrome P450 2A6 [5]): Dose-dependent effect; IC50 (Cytochrome P450 2A6 [2]): 50 nM
